{"source": "patent US20110054017A1", "about": "“SUBSTITUTED FURANS AND THEIR USE” (priority 2008, published 2011)", "data": [{"molecular_target": "T1, Prostacyclin Receptors (IP Receptors) of Human Thrombocyte Membranes (Homo sapiens, UniProt P43119)", "T1 construct": "Thrombocyte membranes are obtained by centrifuging 50 ml human blood; tissue Maco Pharma, Langen; host or cells: human thrombocyte (platelet) membranes prepared from buffy coats", "T1 sequence (P43119 whole entry)": "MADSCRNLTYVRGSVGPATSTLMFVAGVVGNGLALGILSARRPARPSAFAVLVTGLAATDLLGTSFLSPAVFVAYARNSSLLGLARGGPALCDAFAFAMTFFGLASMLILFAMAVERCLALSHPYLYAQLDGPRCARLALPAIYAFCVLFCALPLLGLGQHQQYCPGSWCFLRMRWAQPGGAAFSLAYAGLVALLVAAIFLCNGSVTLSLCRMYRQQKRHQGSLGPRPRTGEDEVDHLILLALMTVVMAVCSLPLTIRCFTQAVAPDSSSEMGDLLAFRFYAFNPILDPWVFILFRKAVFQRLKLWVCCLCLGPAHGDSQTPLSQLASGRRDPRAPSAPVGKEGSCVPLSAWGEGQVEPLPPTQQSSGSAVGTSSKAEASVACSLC", "experiment": "Binding to prostacyclin receptors (IP receptors) of human thrombocyte membranes, 3H-Iloprost displacement", "conditions": "3 nM 3H-Iloprost, 60 min, room temperature", "description": "B-1. Studies of Binding to Prostacyclin Receptors (IP Receptors) of Human Thrombocyte Membranes\nThrombocyte membranes are obtained by centrifuging 50 ml human blood (Buffy coats with CDP Stabilizer, from Maco Pharma, Langen) for 20 min at 160×g. Remove the supernatant (platelet-rich plasma, PRP) and then centrifuge again at 2000×g for 10 min at room temperature. Resuspend the sediment in 50 mM tris(hydroxymethyl)aminomethane, which has been adjusted to a pH of 7.4 with 1 N hydrochloric acid, and store at −20° C. overnight. On the next day, centrifuge the suspension at 80 000×g and 4° C. for 30 min. Discard the supernatant. Resuspend the sediment in 50 mM tris(hydroxymethyl)aminomethane/hydrochloric acid, 0.25 mM ethylene diamine tetraacetic acid (EDTA), pH 7.4, and then centrifuge once again at 80 000×g and 4° C. for 30 min. Take up the membrane sediment in binding buffer (50 mM tris(hydroxymethyl)-aminomethane/hydrochloric acid, 5 mM magnesium chloride, pH 7.4) and store at −70° C. until the binding test.\nFor the binding test, incubate 3 nM ^3H-Iloprost (592 GBq/mmol, from AmershamBioscience) for 60 min with 300-1000 μg/ml human thrombocyte membranes per charge (max. 0.2 ml) in the presence of the test substances at room temperature. After stopping, add cold binding buffer to the membranes and wash with 0.1% bovine serum albumin. After adding Ultima Gold Scintillator, quantify the radioactivity bound to the membranes using a scintillation counter. The nonspecific binding is defined as radioactivity in the presence of 1 μM Iloprost (from Cayman Chemical, Ann Arbor) and is as a rule <25% of the bound total radioactivity. The binding data (IC50 values) are determined using the program GraphPad Prism Version 3.02.", "units": {"IC50": "µM"}, "values": [{"smiles": "COC(=O)CCCCCNC(=O)c1c(C)oc(-c2ccccc2)c1-c1ccc(OC)cc1", "note": "[Example 4, Methyl 6-({[4-(4-methoxyphenyl)-2-methyl-5-phenylfuran-3-yl]carbonyl}amino)hexanoater]", "IC50": 0.47}, {"smiles": "COc1ccc(-c2c(-c3ccccc3)oc(C)c2C(=O)N[C@H](C)CCCCC(=O)O)cc1", "note": "[Example 26]", "IC50": 0.67}, {"smiles": "COc1ccc(-c2c(-c3ccccc3)oc(C)c2C(=O)Nc2cccc(OCC(=O)O)c2)cc1", "note": "[Example 20]", "IC50": 0.438}, {"smiles": "CCc1ccc(-c2c(-c3ccccc3)oc(C)c2C(=O)NCCCCCC(=O)O)cc1", "note": "[Example 18]", "IC50": 0.138}, {"smiles": "COc1ccc(-c2c(-c3ccccc3)oc(C)c2C(=O)O[C@H](C)CCCCC(=O)O)cc1", "note": "[Example 21]", "IC50": 0.315}, {"smiles": "COc1ccc(-c2c(-c3ccccc3)oc(C)c2C(=O)NC(C)CCCCC(=O)O)cc1", "note": "(stereo not drawn) [Example 24]", "IC50": 0.476}]}]}
